Experimental data published in patent publication US12227500B2, “Substituted pyrrolo[2,3-b]pyridines for suppressing toxic endoplasmic reticulum stress” (THE TRUSTEES OF COLUMBIA UNIVERSITY IN THE CITY OF NEW YORK, priority 2018, dated 2025).

Legend:
Test in all cases: Radiolabeled ATP kinase assay, panel of 371 kinases (Table S6)
Type in all cases: biochemical
[1] = biological target: T1, panel of 371 human kinases (Homo sapiens, UniProt Q9NR20); settings: DYRK4; 0.1 μM; 10 μM ATP; read-out: % Enzyme Activity (relative to DMSO controls)
T1 construct: purchased Reaction Biology Corp
Description: (§1) ; FIG. 38C). […]. Further targeted analyses, such as genetic knock-down or knock-out, may be warranted to parse the role of these additional kinases in our model of neurodegeneration.

[2] = biological target: T2, panel of 371 human kinases (Homo sapiens, UniProt P43405); settings: SYK; 0.1 μM; 10 μM ATP; read-out: % Enzyme Activity (relative to DMSO controls)
T2 construct: purchased Reaction Biology Corp
Description: as §1

[3] = biological target: T3, panel of 371 human kinases (Homo sapiens, UniProt Q6DT37); settings: DMPK2; 0.1 μM; 10 μM ATP; read-out: % Enzyme Activity (relative to DMSO controls)
T3 construct: purchased Reaction Biology Corp
Description: as §1

[4] = biological target: T4, panel of 371 human kinases (Homo sapiens, UniProt Q9Y572); settings: RIPK3; 0.1 μM; 10 μM ATP; read-out: % Enzyme Activity (relative to DMSO controls)
T4 construct: purchased Reaction Biology Corp
Description: as §1

[5] = biological target: T5, panel of 371 human kinases (Homo sapiens, UniProt Q92918); settings: HPK1/MAP4K1; 0.1 μM; 10 μM ATP; read-out: % Enzyme Activity (relative to DMSO controls)
T5 construct: purchased Reaction Biology Corp
Description: as §1

[6] = biological target: T6, panel of 371 human kinases (Homo sapiens, UniProt Q76MJ5); settings: ERN2/IRE2; 0.1 μM; 10 μM ATP; read-out: % Enzyme Activity (relative to DMSO controls)
T6 construct: purchased Reaction Biology Corp
Description: as §1

[7] = biological target: T7, panel of 371 human kinases (Homo sapiens, UniProt P51956); settings: NEK3; 0.1 μM; 10 μM ATP; read-out: % Enzyme Activity (relative to DMSO controls)
T7 construct: purchased Reaction Biology Corp
Description: as §1

[8] = biological target: T8, panel of 371 human kinases (Homo sapiens, UniProt Q14289); settings: PYK2; 0.1 μM; 10 μM ATP; read-out: % Enzyme Activity (relative to DMSO controls)
T8 construct: purchased Reaction Biology Corp
Description: as §1

[9] = biological target: T9, panel of 371 human kinases (Homo sapiens, UniProt O15075); settings: DCAMKL1; 0.1 μM; 10 μM ATP; read-out: % Enzyme Activity (relative to DMSO controls)
T9 construct: purchased Reaction Biology Corp
Description: as §1

[10] = biological target: T10, panel of 371 human kinases (Homo sapiens, UniProt O43293); settings: ZIPK/DAPK3; 0.1 μM; 10 μM ATP; read-out: % Enzyme Activity (relative to DMSO controls)
T10 construct: purchased Reaction Biology Corp
Description: as §1

[11] = biological target: T11, panel of 371 human kinases (Homo sapiens, UniProt Q9UEE5); settings: DRAK1/STK17A; 0.1 μM; 10 μM ATP; read-out: % Enzyme Activity (relative to DMSO controls)
T11 construct: purchased Reaction Biology Corp
Description: as §1

[12] = biological target: T12, panel of 371 human kinases (Homo sapiens, UniProt Q13233); settings: MEKK1; 0.1 μM; 10 μM ATP; read-out: % Enzyme Activity (relative to DMSO controls)
T12 construct: purchased Reaction Biology Corp
Description: as §1

[13] = biological target: T13, panel of 371 human kinases (Homo sapiens, UniProt Q13976); settings: PKG1a; 0.1 μM; 10 μM ATP; read-out: % Enzyme Activity (relative to DMSO controls)
T13 construct: purchased Reaction Biology Corp
Description: as §1

[14] = biological target: T14, panel of 371 human kinases (Homo sapiens, UniProt P10398); settings: ARAF; 0.1 μM; 10 μM ATP; read-out: % Enzyme Activity (relative to DMSO controls)
T14 construct: purchased Reaction Biology Corp
Description: as §1

[15] = biological target: T15, panel of 371 human kinases (Homo sapiens, UniProt Q96NX5); settings: CAMK1g; 0.1 μM; 10 μM ATP; read-out: % Enzyme Activity (relative to DMSO controls)
T15 construct: purchased Reaction Biology Corp
Description: as §1

[16] = biological target: T16, panel of 371 human kinases (Homo sapiens, UniProt Q06418); settings: TYRO3/SKY; 0.1 μM; 10 μM ATP; read-out: % Enzyme Activity (relative to DMSO controls)
T16 construct: purchased Reaction Biology Corp
Description: as §1

[17] = biological target: T17, panel of 371 human kinases (Homo sapiens, UniProt Q07002); settings: CDK18/cyclin Y (PCTK3); 0.1 μM; 10 μM ATP; read-out: % Enzyme Activity (relative to DMSO controls)
T17 construct: purchased Reaction Biology Corp
Description: as §1

[18] = biological target: T18, panel of 371 human kinases (Homo sapiens, UniProt Q96RG2); settings: PASK; 0.1 μM; 10 μM ATP; read-out: % Enzyme Activity (relative to DMSO controls)
T18 construct: purchased Reaction Biology Corp
Description: as §1

[19] = biological target: T19, panel of 371 human kinases (Homo sapiens, UniProt Q52WX2); settings: SBK1; 0.1 μM; 10 μM ATP; read-out: % Enzyme Activity (relative to DMSO controls)
T19 construct: purchased Reaction Biology Corp
Description: as §1

[20] = biological target: T20, panel of 371 human kinases (Homo sapiens, UniProt P49137); settings: MAPKAPK2; 0.1 μM; 10 μM ATP; read-out: % Enzyme Activity (relative to DMSO controls)
T20 construct: purchased Reaction Biology Corp
Description: as §1

[21] = biological target: T21, panel of 371 human kinases (Homo sapiens, UniProt O75582); settings: MSK1/RPS6KA5; 0.1 μM; 10 μM ATP; read-out: % Enzyme Activity (relative to DMSO controls)
T21 construct: purchased Reaction Biology Corp
Description: as §1

[22] = biological target: T22, panel of 371 human kinases (Homo sapiens, UniProt Q5TCX8); settings: MLK4; 0.1 μM; 10 μM ATP; read-out: % Enzyme Activity (relative to DMSO controls)
T22 construct: purchased Reaction Biology Corp
Description: as §1

[23] = biological target: T23, panel of 371 human kinases (Homo sapiens, UniProt Q9Y6E0); settings: MST3/STK24; 0.1 μM; 10 μM ATP; read-out: % Enzyme Activity (relative to DMSO controls)
T23 construct: purchased Reaction Biology Corp
Description: as §1

[24] = biological target: T24, panel of 371 human kinases (Homo sapiens, UniProt O75385); settings: ULK1; 0.1 μM; 10 μM ATP; read-out: % Enzyme Activity (relative to DMSO controls)
T24 construct: purchased Reaction Biology Corp
Description: as §1

T24 sequence (O75385 whole entry): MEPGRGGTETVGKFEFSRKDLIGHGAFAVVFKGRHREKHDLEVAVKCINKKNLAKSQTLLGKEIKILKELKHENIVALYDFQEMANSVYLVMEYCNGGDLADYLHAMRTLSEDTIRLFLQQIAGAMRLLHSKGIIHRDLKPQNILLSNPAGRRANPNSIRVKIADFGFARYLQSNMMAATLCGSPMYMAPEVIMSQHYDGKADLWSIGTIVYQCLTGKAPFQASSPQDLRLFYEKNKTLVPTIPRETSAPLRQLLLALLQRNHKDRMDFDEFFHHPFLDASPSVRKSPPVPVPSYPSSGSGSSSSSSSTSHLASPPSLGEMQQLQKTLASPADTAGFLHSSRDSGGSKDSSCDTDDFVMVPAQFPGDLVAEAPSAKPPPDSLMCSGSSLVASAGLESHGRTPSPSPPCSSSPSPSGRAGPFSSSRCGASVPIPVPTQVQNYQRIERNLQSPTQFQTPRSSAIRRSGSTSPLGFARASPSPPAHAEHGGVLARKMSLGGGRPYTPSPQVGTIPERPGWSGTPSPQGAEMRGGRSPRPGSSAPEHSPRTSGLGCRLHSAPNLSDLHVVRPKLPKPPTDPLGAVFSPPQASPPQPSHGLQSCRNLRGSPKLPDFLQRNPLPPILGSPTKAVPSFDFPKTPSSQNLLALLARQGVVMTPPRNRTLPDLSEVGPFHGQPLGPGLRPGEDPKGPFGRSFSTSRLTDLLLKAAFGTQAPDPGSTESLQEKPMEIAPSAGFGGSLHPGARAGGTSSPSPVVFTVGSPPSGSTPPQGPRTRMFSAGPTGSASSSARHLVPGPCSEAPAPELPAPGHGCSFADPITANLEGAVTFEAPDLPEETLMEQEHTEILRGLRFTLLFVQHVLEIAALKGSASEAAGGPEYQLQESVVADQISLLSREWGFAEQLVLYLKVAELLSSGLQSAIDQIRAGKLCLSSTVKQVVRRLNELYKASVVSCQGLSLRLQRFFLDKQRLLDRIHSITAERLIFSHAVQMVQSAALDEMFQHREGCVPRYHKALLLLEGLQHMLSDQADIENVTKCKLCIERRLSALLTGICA
T22 sequence (Q5TCX8 whole entry): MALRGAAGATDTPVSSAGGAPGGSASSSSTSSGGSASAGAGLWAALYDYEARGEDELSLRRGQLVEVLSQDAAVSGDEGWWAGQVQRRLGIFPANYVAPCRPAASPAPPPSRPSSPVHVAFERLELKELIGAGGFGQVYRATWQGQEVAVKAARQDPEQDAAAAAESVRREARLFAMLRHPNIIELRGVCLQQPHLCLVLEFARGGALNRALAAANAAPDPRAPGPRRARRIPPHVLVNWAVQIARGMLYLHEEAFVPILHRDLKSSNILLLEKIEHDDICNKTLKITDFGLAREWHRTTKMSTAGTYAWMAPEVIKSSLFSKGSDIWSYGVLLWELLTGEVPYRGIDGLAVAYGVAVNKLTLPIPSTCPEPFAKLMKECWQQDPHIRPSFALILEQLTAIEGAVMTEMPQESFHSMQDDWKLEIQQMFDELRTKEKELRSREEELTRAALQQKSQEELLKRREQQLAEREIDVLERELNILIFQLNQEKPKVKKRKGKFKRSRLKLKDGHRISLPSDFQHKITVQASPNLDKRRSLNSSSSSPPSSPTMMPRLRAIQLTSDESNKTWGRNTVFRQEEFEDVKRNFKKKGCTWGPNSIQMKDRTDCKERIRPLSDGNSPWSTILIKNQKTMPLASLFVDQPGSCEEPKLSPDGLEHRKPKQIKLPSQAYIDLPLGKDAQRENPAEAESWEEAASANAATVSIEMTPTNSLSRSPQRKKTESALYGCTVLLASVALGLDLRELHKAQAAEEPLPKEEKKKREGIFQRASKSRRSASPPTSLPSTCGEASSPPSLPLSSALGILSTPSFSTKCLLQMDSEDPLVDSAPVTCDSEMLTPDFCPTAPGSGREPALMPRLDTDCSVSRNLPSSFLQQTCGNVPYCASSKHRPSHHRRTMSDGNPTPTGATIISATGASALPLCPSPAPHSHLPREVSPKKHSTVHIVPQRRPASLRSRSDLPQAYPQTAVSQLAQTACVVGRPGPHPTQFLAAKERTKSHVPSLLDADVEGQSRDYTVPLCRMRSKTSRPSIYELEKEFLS
T17 sequence (Q07002 whole entry): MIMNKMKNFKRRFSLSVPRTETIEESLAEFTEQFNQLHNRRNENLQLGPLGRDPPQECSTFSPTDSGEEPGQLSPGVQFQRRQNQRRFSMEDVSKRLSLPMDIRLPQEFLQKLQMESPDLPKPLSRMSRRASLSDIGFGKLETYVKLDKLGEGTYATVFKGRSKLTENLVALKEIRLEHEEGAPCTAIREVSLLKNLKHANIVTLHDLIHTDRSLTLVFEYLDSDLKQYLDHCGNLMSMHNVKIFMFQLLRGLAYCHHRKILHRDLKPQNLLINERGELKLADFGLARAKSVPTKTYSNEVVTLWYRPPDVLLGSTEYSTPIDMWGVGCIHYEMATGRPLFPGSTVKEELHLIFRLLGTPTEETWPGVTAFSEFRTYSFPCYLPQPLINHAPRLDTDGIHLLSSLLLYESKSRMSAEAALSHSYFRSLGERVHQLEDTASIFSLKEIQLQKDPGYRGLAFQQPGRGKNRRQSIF
T21 sequence (O75582 whole entry): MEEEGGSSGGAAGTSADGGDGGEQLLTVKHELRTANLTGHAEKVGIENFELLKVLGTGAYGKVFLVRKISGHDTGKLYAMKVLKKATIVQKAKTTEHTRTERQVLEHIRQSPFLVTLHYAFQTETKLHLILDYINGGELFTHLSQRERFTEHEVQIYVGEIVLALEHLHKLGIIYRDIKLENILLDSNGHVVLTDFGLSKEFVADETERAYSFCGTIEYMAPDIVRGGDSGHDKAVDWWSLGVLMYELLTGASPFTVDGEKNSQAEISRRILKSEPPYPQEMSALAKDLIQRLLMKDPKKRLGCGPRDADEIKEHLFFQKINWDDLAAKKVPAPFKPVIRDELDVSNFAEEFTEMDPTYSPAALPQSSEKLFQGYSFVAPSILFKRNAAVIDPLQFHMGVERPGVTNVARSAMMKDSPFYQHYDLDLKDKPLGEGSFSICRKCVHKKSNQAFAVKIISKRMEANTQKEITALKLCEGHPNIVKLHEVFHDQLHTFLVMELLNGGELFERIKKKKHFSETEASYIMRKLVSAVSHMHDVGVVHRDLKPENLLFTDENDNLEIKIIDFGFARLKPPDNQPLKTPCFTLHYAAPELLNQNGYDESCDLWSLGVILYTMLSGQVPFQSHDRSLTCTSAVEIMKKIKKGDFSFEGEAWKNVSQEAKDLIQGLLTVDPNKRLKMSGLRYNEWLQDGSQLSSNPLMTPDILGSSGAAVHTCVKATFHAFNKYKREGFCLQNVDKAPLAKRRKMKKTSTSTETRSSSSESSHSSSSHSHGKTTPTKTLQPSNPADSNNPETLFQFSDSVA
T1 sequence (Q9NR20 whole entry): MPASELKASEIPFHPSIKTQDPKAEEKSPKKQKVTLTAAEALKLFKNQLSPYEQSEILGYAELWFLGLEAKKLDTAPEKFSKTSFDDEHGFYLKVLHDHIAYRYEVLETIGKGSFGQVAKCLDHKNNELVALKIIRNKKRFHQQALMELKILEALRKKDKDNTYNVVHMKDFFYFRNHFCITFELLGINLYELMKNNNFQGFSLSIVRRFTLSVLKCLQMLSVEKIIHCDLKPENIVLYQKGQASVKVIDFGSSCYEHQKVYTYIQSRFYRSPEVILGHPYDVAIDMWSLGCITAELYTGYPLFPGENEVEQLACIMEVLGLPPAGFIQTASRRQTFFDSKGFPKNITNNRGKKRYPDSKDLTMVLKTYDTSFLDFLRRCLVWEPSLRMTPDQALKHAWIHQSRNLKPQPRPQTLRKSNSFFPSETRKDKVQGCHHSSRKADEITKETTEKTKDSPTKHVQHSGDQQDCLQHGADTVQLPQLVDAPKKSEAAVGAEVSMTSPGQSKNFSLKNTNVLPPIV
T4 sequence (Q9Y572 whole entry): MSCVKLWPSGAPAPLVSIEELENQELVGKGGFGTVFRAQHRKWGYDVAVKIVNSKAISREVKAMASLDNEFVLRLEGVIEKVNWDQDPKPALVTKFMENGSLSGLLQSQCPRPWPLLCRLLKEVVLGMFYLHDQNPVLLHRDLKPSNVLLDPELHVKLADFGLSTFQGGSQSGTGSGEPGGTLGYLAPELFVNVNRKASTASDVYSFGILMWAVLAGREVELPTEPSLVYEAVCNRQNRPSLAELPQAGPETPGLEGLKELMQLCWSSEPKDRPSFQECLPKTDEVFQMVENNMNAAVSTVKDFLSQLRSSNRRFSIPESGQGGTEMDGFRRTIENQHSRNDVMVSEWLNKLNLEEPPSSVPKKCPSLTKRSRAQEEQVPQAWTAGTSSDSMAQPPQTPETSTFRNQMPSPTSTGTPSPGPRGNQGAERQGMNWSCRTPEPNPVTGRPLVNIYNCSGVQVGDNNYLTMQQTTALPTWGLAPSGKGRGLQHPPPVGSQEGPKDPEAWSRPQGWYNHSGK
T20 sequence (P49137 whole entry): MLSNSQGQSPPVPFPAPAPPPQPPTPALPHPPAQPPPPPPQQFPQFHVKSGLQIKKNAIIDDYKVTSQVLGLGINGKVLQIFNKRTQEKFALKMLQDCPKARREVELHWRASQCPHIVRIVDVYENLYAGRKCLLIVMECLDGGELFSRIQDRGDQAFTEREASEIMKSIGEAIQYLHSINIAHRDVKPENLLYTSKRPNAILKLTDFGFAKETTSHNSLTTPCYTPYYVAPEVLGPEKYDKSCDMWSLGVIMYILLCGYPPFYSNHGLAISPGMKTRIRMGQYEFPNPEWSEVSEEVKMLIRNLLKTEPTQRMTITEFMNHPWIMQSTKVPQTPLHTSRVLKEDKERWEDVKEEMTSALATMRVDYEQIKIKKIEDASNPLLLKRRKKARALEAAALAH

Row | Compound | remaining activity at 0.1 µM [1] | remaining activity at 0.1 µM [2] | remaining activity at 0.1 µM [3] | remaining activity at 0.1 µM [4] | remaining activity at 0.1 µM [5] | remaining activity at 0.1 µM [6] | remaining activity at 0.1 µM [7] | remaining activity at 0.1 µM [8] | remaining activity at 0.1 µM [9] | remaining activity at 0.1 µM [10] | remaining activity at 0.1 µM [11] | remaining activity at 0.1 µM [12] | remaining activity at 0.1 µM [13] | remaining activity at 0.1 µM [14] | remaining activity at 0.1 µM [15] | remaining activity at 0.1 µM [16] | remaining activity at 0.1 µM [17] | remaining activity at 0.1 µM [18] | remaining activity at 0.1 µM [19] | remaining activity at 0.1 µM [20] | further results
1 | CN1CCN(Cc2ccc(-c3cnc4[nH]cc(-c5ccc6[nH]ccc6c5)c4c3)cc2)CC1 [Compound 1, 3-(1H-Indol-5-yl)-5-(4-((4-methylpiperazin-1-yl)methyl)phenyl)-1H-pyrrolo[2,3-b]pyridine, reference compound] | 111% | 89.6% | 76.8% | 100% | 49.6% | 92.3% | 88.3% | 84.8% | 97.2% | 108% | 88.7% | 102% | 101% | 108% | 97.8% | 86.8% | 90.3% | 78% | 99% | 96.9% | remaining activity at 0.1 µM [21]: 101%; remaining activity at 0.1 µM [22]: 99.9%; remaining activity at 0.1 µM [23]: 71.2%; remaining activity at 0.1 µM [24]: 89.7%
2 | OCCN1CCN(Cc2ccc(-c3cnc4[nH]cc(-c5cccc(Cl)c5)c4c3)cc2)CC1 [Compound 12k, 2-(4-(4-(3-(3-Chlorophenyl)-1H-pyrrolo[2,3-b]pyridin-5-yl)benzyl)piperazin-1-yl)ethan-1-ol] | 101% | 93.9% | 61.3% | 99.4% | 47.9% | 64.3% | 91.1% | 89.2% | 94.2% | 99.8% | 88.8% | 94% | 108% | 96.6% | 101% | 94.3% | 77.5% | 90.1% | 98.7% | 99.6% | remaining activity at 0.1 µM [21]: 98.4%; remaining activity at 0.1 µM [22]: 108%; remaining activity at 0.1 µM [23]: 78.4%; remaining activity at 0.1 µM [24]: 88.8%
